Assay results reported in PubChem BioAssay AID977605 (Broad Institute, 2014).
Activity calls are given as the source filed them.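 Rule for the calls: active = fitted curve reaches 40% activation below the top valid tested dose, in every test run; inconclusive = test runs disagree on the call; inactive = the rest, including effects opposite to the expected direction.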

Test: E-selectin inducers in HUVECs, dose response, imaging, HUVEC, cherry-picked samples (AID 977605);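 note: signal is the share of imaged cells scored positive for E-selectin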
Conditions: HUVEC E-selectin immunostaining, percent of TNF-alpha response over vehicle

SMILES | activation (at 19.5 µM (top of the series)) | further results
Cc1noc(C)c1NC(=O)Nc1cccc2c1O[C@H](CN(C)CC1CCCCC1)[C@H](C)CN([C@@H](C)CO)C2=O | 0.049% (inactive) | –
COc1ccc(NC(=O)Nc2ccc3c(c2)C(=O)N([C@@H](C)CO)C[C@@H](C)[C@@H](CN(C)S(=O)(=O)c2ccc(F)cc2)O3)cc1 | – | activation (at 21 µM (top of the series)): 0.213% (inactive)
C[C@H]1CN([C@@H](C)CO)C(=O)c2cc(NC(=O)CCCCCC(=O)Nc3ccccc3N)ccc2O[C@H]1CN(C)C(=O)Nc1ccc(F)cc1 | 0.137% (inactive) | –
O=C(c1cncc(Br)c1)N1CCN(S(=O)(=O)c2ccccc2C(F)(F)F)CC1 | -0.01% (inactive) | –
CCOc1ccccc1NC(=O)N1CCC(NC(=O)C2CCCCC2)CC1 | -0.152% (inactive) | –
C[C@H](CO)N1C[C@H](C)[C@H](CN(C)Cc2ccc(Cl)c(Cl)c2)Oc2c(NS(=O)(=O)c3cn(C)cn3)cccc2C1=O | -0.123% (inactive) | –
C[C@H]1CN([C@@H](C)CO)C(=O)c2cc(NS(C)(=O)=O)ccc2O[C@@H]1CN(C)Cc1ccc(Cl)c(Cl)c1 | -0.025% (inactive) | –
CC(=O)NC(Cc1c[nH]c2ccccc12)C(=O)NCCc1ccccn1 (centres undefined) | 0.144% (inactive) | –
COc1ccccc1-c1c(C)nn2c(NCCN3CCCC3)cc(C)nc12 | 0.061% (inactive) | –
Cc1noc(C)c1NC(=O)N(C)C[C@H]1Oc2ccc(NS(=O)(=O)c3c(C)noc3C)cc2C(=O)N([C@H](C)CO)C[C@@H]1C | -0.221% (inactive) | –
C[C@H]1CN([C@@H](C)CO)C(=O)Cc2cc(NS(=O)(=O)c3ccc(F)cc3)ccc2O[C@H]1CN(C)S(=O)(=O)c1ccc(Cl)cc1 | -0.018% (inactive) | –
C[C@H](CO)N1C[C@H](C)[C@H](CN(C)Cc2ccncc2)Oc2ccc(NS(C)(=O)=O)cc2CC1=O | – | activation (at 21 µM (top of the series)): 0.077% (inactive)
C[C@@H]1CN([C@H](C)CO)C(=O)c2cc(NS(C)(=O)=O)ccc2O[C@@H]1CN(C)C(=O)Nc1ccccc1 | -0.094% (inactive) | –
CCOc1ccc(S(=O)(=O)N2CCC(C(=O)NCc3cccnc3)CC2)cc1 | -0.239% (inactive) | –
C[C@@H]1CN([C@H](C)CO)C(=O)Cc2cc(NS(=O)(=O)c3cccs3)ccc2O[C@@H]1CN(C)Cc1ccc(C(=O)Nc2ccccc2N)cc1 | 1.45% (inactive) | –
C[C@@H]1CN([C@H](C)CO)S(=O)(=O)c2ccc(-c3ccccc3)cc2O[C@H]1CN(C)S(C)(=O)=O | -0.007% (inactive) | –
O=S(=O)(NCc1cccnc1)c1ccc(Cl)c2ccccc12 | 0.304% (inactive) | –
CC(C)NC(=O)Nc1ccc2c(c1)C(=O)N([C@@H](C)CO)C[C@H](C)[C@H](CN(C)Cc1ccc(C(F)(F)F)cc1)O2 | 0.054% (inactive) | –
CC(C)NC(=O)N(C)C[C@@H]1Oc2c(NC(=O)c3ccc(-c4nccs4)cc3)cccc2C(=O)N([C@H](C)CO)C[C@H]1C | -0.093% (inactive) | –
O=C(NCc1ccccc1)C1CCCN(S(=O)(=O)c2ccc(-n3cnnn3)cc2)C1 (centres undefined) | 1.85% (inactive) | –
C[C@H]1CN([C@@H](C)CO)C(=O)Cc2cc(NC(=O)Nc3cccc4ccccc34)ccc2O[C@@H]1CN(C)C(=O)Nc1ccc(C(F)(F)F)cc1 | 14.8% (inactive) | –
C[C@@H]1CN([C@@H](C)CO)C(=O)c2cccc(NC(=O)c3ccncc3)c2O[C@H]1CN(C)C(=O)Nc1cccc2ccccc12 | – | activation (at 21 µM (top of the series)): 1.89% (inactive)
O=C(Nc1cccc(S(=O)(=O)NCc2ccco2)c1)c1cccc(Cl)c1 | 0.285% (inactive) | –
C[C@@H]1CN([C@@H](C)CO)C(=O)c2cc(NC(=O)Nc3ccccc3)ccc2O[C@@H]1CN(C)C(=O)Nc1ccc(C(F)(F)F)cc1 | 0.807% (inactive) | –
C[C@@H]1CN([C@@H](C)CO)C(=O)Cc2cc(NC(=O)Cn3cnnn3)ccc2O[C@H]1CN(C)C(=O)Nc1ccc(C(F)(F)F)cc1 | -0.025% (inactive) | –

SMILES | activation (at 19.5 µM (top of the series)) | further results
CN(C)C1(CNC(=O)C2CCN(S(=O)(=O)c3cc(Cl)ccc3Cl)CC2)CCCCC1 | -0.207% (inactive) | –
NC(=O)C1CCN(c2nc(-c3ccccc3-c3ccccc3)cs2)CC1 | 0.136% (inactive) | –
CC(C)CC#Cc1ccc2c(c1)O[C@H](CN(C)Cc1ccncc1)[C@H](C)CN([C@@H](C)CO)S2(=O)=O | -0.038% (inactive) | –
C[C@@H]1CN([C@H](C)CO)C(=O)Cc2cc(NS(=O)(=O)c3ccccc3)ccc2O[C@@H]1CN(C)Cc1ccc(C(F)(F)F)cc1 | 0.93% (inactive) | –
COc1ccc(N2CCN(C(=O)c3cccc(NC4=NC5CS(=O)(=O)CC5S4)c3)CC2)cc1 (centres undefined) | -0.136% (inactive) | –
COC(=O)C[C@@H]1CC[C@@H]2[C@H](COc3ccc(NC(=O)Nc4cccc(F)c4)cc3C(=O)N2C)O1 | -0.161% (inactive) | –
COc1ccc(S(=O)(=O)Nc2ccc3c(c2)C(=O)N([C@@H](C)CO)C[C@H](C)[C@@H](CN(C)C(=O)Nc2cccc4ccccc24)O3)cc1 | -0.208% (inactive) | –
Cc1noc(C)c1S(=O)(=O)Nc1ccc2c(c1)CC(=O)N([C@H](C)CO)C[C@H](C)[C@@H](CN(C)C(=O)Nc1cccc3ccccc13)O2 | -0.095% (inactive) | –
CN(CC(=O)Nc1ccc(Cl)c(Cl)c1)C1CCCCC1 | -0.064% (inactive) | –
C[C@@H]1CN([C@H](C)CO)C(=O)Cc2cc(NC(=O)Cc3ccccc3)ccc2O[C@H]1CN(C)C(=O)Nc1cccc2ccccc12 | – | activation (at 18 µM (top of the series)): 0.676% (inactive)
C[C@H](CO)N1C[C@H](C)[C@H](CN(C)Cc2ccc(C(F)(F)F)cc2)Oc2ccc(NS(=O)(=O)c3cn(C)cn3)cc2CC1=O | -0.066% (inactive) | –
C[C@@H]1CN([C@@H](C)CO)C(=O)c2cc(N(C)C)ccc2O[C@@H]1CN(C)C(=O)Nc1cccc2ccccc12 | -0.224% (inactive) | –
C[C@@H]1CN([C@H](C)CO)C(=O)c2cc(NC(=O)Cn3cnnn3)ccc2O[C@@H]1CN(C)S(=O)(=O)c1ccccc1 | 0.017% (inactive) | –
Cc1noc(C)c1NC(=O)Nc1cccc2c1O[C@@H](CN(C)CC1CCCCC1)[C@H](C)CN([C@@H](C)CO)C2=O | – | activation (at 21 µM (top of the series)): -0.074% (inactive)
CN1C(=O)c2cc(NS(C)(=O)=O)ccc2OC[C@@H]2O[C@H](CC(=O)NCc3ccc(-c4ccccc4)cc3)CC[C@@H]21 | -0.043% (inactive) | –
C[C@@H]1CN([C@H](C)CO)C(=O)Cc2cc(NC(=O)CCCCCC(=O)Nc3ccccc3N)ccc2O[C@H]1CN(C)C(=O)Nc1ccc2c(c1)OCO2 | -0.123% (inactive) | –
Oc1cccc(Oc2ncc(C(F)(F)F)cc2Cl)c1 | -0.09% (inactive) | –
COc1ccc(S(=O)(=O)N(C)C[C@H]2Oc3ccc(NC(=O)Nc4ccc5c(c4)OCO5)cc3CC(=O)N([C@H](C)CO)C[C@@H]2C)cc1 | 0.086% (inactive) | –
CN1C(=O)c2cc(NC(=O)C3CCOCC3)ccc2OC[C@@H]2O[C@H](CC(=O)NCc3ccccc3F)CC[C@H]21 | – | activation (at 21 µM (top of the series)): -0.036% (inactive)
C[C@@H]1CN([C@H](C)CO)C(=O)c2cccc(NC(=O)Nc3ccc4c(c3)OCO4)c2O[C@H]1CN(C)C(=O)Nc1ccc(C(F)(F)F)cc1 | – | activation (at 21 µM (top of the series)): 0.262% (inactive)
CCc1cc(C(=O)Nc2nc(-c3ccccn3)cs2)sc1C | 0.665% (inactive) | –
O=C(CCCn1c(=O)c2ccccc2n(CC(=O)N2CCN(c3ccccc3)CC2)c1=O)NCc1ccco1 | -0.084% (inactive) | –
C[C@@H]1CN([C@H](C)CO)C(=O)Cc2cc(NC(=O)Cc3ccccc3)ccc2O[C@H]1CN(C)S(C)(=O)=O | -0.135% (inactive) | –
C[C@H](CO)N1C[C@H](C)[C@@H](CN(C)Cc2ccc(Oc3ccccc3)cc2)Oc2ccc(NC(=O)Nc3ccc(C(F)(F)F)cc3)cc2CC1=O | -0.23% (inactive) | –
